This is an account of results in patent publication US20260184708A1, “PYRIDAZINONES AND METHODS OF USE THEREOF” (GFB (ABC), LLC, priority 2017, published 2026).

Where two headings read alike, the source gives them in different places.

In this assay the target is T1, TRPC5 (Homo sapiens, UniProt Q9UL62).
T1 construct: expressed in transfected cells; host or cells: HEK 293
T1 sequence (Q9UL62 1-973): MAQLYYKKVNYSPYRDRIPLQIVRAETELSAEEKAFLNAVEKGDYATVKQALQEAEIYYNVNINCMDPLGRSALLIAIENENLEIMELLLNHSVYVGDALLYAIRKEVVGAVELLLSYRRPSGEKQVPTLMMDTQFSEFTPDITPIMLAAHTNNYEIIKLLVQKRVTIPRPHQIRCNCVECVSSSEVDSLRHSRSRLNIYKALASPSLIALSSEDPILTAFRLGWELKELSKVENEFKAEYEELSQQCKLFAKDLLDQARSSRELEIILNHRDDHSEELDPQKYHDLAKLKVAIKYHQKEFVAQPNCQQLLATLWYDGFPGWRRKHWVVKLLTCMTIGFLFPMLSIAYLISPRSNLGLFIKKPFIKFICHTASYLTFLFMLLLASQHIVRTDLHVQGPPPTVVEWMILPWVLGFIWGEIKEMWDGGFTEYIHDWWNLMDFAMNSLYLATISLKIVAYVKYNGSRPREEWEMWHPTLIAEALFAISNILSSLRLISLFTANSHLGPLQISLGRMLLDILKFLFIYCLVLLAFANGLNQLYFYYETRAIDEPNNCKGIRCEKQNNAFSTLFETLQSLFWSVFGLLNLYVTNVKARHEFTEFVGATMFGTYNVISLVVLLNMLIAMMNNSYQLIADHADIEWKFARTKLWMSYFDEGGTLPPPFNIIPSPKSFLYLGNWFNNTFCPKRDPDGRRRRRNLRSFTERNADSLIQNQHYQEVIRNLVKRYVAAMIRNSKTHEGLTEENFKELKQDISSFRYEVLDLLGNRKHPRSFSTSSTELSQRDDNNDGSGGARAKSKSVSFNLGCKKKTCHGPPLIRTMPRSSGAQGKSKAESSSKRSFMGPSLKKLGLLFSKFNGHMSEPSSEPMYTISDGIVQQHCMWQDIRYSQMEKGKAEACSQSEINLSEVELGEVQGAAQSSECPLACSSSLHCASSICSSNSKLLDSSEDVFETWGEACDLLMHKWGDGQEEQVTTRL
Nature of the assay: TRPC5 automated patch clamp assay (Qpatch), current block after rosiglitazone stimulation. The class given is cell-based. The following applies: HEK293 cells overexpressing TRPC5. The gist of the method:
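HEK 293 cells expressing human TRPC5, whole-cell QPatch recording; 1 μM buffered free internal Ca2+, external pH 7.4. Ramps −100 to +100 mV over 300 ms every 10 s from −60 mV holding; channel activated by Rosiglitazone (30 uM) after ≥60 s control. IC50 from Hill fit.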
(The patch-clamp technique gives a direct electrical read-out from membranes.)

[1] abbreviates: Table 3, rosiglitazone stimulation, 80 mV, read-out: TRPC5_QP_ XC50_80.
[2] abbreviates: Table 3, rosiglitazone stimulation, 100 mV, read-out: TRPC5_QP_ XC50_100.
Setting [3] is: Table 4, rosiglitazone stimulation, 80 mV, read-out: TRPC5_QP_ XC50_80.
Where [4] appears, read: Table 4, rosiglitazone stimulation, 100 mV, read-out: TRPC5_QP_ XC50_100.
Where [5] appears, read: Table 5, rosiglitazone stimulation, 80 mV, read-out: TRPC5_QP_ XC50_80.
Setting [6] is: Table 5, rosiglitazone stimulation, 100 mV, read-out: TRPC5_QP_ XC50_100.
Setting [7] is: rosiglitazone stimulation, 80 mV, read-out: TRPC5_QP XC50_80.
The mark [8] stands for this setting: rosiglitazone stimulation, 100 mV, read-out: TRPC5_QP XC50_100.

Turning to `Cc1ccccc1CN1CCN(c2cn[nH]c(=O)c2C(F)(F)F)CC1=O`, the IC50 under setting [1] fell in the range of 1 to 5 µM and the IC50 under setting [2] lay within 5 to 10 µM. The like results for `O=c1[nH]ncc(N2CCN(Cc3cccc(C(F)(F)F)c3)CC2)c1Cl` were, in that order, 1 to 5 µM and 1 to 5 µM.

As to `Cc1cc(F)ccc1CN1CCN(c2c(Cl)c(C)n[nH]c2=O)CC1=O`, the IC50 by setting is: under setting [3], 10 to 500 µM; under setting [4], 10 to 500 µM. In the case of `O=C1CN(c2cn[nH]c(=O)c2Cl)CCN1Cc1ccccc1OC(F)(F)F` [drawing 689], the IC50 runs as follows: under setting [1], 1e-05 to 1 µM; under setting [2], 1e-05 to 1 µM. `C[C@@H]1CN(Cc2cccc3ccccc23)CCN1c1cn[nH]c(=O)c1Cl`: the IC50 under setting [3] was 5 to 10 µM and the IC50 under setting [4] is 5 to 10 µM. As for `O=C1CN(c2cn[nH]c(=O)c2Cl)CCN1C1(c2ccccc2)CC1`, the IC50 under setting [5] is 1 to 5 µM and the IC50 under setting [6] lay in the range of 1 to 5 µM. For `Cc1ncccc1CN1CCN(c2cn[nH]c(=O)c2Cl)CC1` [drawing 719], the IC50 is, setting by setting: under setting [3], 1e-05 to 1 µM; under setting [4], 1e-05 to 1 µM. Consider `O=C1CN(c2cn[nH]c(=O)c2Cl)CCN1Cc1ccc(Cl)cn1`, for which the IC50 runs as follows: under setting [3], 10 to 500 µM; under setting [4], 10 to 500 µM.

Turning to `Cc1ccccc1CN1CCN(c2c(Cl)cn[nH]c2=O)CC1=O`, the IC50 reads like this: under setting [5], 10 to 500 µM; under setting [6], 10 to 500 µM.

On to `Cc1ccccc1CN1CCN(c2cn[nH]c(=O)c2Br)C(C)C1` (stereo not shown) [drawing 647], for which the IC50 under setting [1] is 1 to 5 µM and the IC50 under setting [2] fell in the range of 1 to 5 µM. With `Cc1cc(F)ccc1CN1CCN(c2cn[nH]c(=O)c2C(F)(F)F)CC1=O`, the IC50 was 5 to 10 µM under setting [5] and 5 to 10 µM under setting [6]. As to `O=c1[nH]ncc(Cl)c1N1CCN(Cc2ccccc2OC(F)(F)F)CC1`, the IC50 is 5 to 10 µM under setting [3] and 5 to 10 µM under setting [4]. As to `Cc1ccccc1CN1CCN(c2cn[nH]c(=O)c2Br)CC1C` (stereo not shown) [drawing 649], the IC50 lay in the range of 10 to 500 µM under setting [1] and 10 to 500 µM under setting [2]. On to `Cc1ccccc1CN1CCN(c2cn[nH]c(=O)c2Cl)CC1=O` [drawing 664], for which the IC50 lay in the range of 1e-05 to 1 µM under setting [1] and 1e-05 to 1 µM under setting [2]. For the compound `O=c1[nH]ncc(N2CCC(Cc3ccccc3)CC2)c1Br`, the IC50 reads like this: under setting [7], 10 to 500 µM; under setting [8], 10 to 500 µM. Regarding `CC(C)(C)c1ccc(CN2CCN(c3cn[nH]c(=O)c3Cl)CC2=O)cc1`, the IC50 by setting is: under setting [5], 10 to 500 µM; under setting [6], 10 to 500 µM. Take `C[C@@H](c1ccccc1)N1CCN(c2cn[nH]c(=O)c2Cl)CC1`: the IC50 under setting [3] was in the range of 5 to 10 µM and the IC50 under setting [4] lay within 1 to 5 µM.

As for `O=c1[nH]ncc(N2CCN(Cc3ccc(F)cc3Cl)CC2)c1Cl`, the IC50 under setting [1] is 1 to 5 µM and the IC50 under setting [2] lay in the range of 5 to 10 µM. Regarding `Cc1ccccc1CN1CCCN(c2cn[nH]c(=O)c2Br)CC1`, the IC50 was 5 to 10 µM under setting [7] and 5 to 10 µM under setting [8]. Regarding `N#Cc1c(N2CCc3c(nnn3Cc3ccccc3C(F)(F)F)C2)cn[nH]c1=O` [drawing 891], under “Table 6, read-out: TRPC5-QPatch IC50”, the IC50 was 1 to 5 µM.

Consider `Cc1ccccc1Cn1cnc2c1CCN(c1cn[nH]c(=O)c1Cl)C2` [drawing 830], for which the IC50 is 1e-05 to 1 µM under setting [5] and 1e-05 to 1 µM under setting [6]. For `O=c1[nH]ncc(N2CCN(Cc3ccc(F)cc3F)CC2)c1Cl`, the IC50 reads like this: under setting [1], 5 to 10 µM; under setting [2], 5 to 10 µM. In the case of `Cc1cc(Cl)ccc1CN1CCN(c2cn[nH]c(=O)c2Cl)CC1=O` [drawing 737], the IC50 lay in the range of 1 to 5 µM under setting [3] and 1 to 5 µM under setting [4]. Regarding `O=C1CN(c2cn[nH]c(=O)c2Cl)CCN1Cc1ccc(OC(F)(F)F)cc1`, the IC50 fell in the range of 1 to 5 µM under setting [5] and 1 to 5 µM under setting [6].

For `O=C(c1ccccc1)N1CCN(c2cn[nH]c(=O)c2Br)CC1`, the IC50 reads like this: under setting [7], 10 to 500 µM; under setting [8], 10 to 500 µM.

Take `O=C1N(Cc2ccccc2C(F)(F)F)CCC12CCN(c1cn[nH]c(=O)c1Cl)CC2`: the IC50 under setting [5] fell in the range of 10 to 500 µM and the IC50 under setting [6] lay in the range of 10 to 500 µM. `O=C1CN(c2c(Cl)c(Br)n[nH]c2=O)CCN1Cc1ccccc1OC(F)(F)F`: the IC50 fell in the range of 10 to 500 µM under setting [3] and 10 to 500 µM under setting [4]. `Cc1cc(F)ccc1CN1CCN(c2c(Cl)cn[nH]c2=O)CC1`: the IC50 lay in the range of 1 to 5 µM under setting [1] and 1 to 5 µM under setting [2].
